Assay results published in BigSolDB 2.1.

O=C(O)c1cc(O)c(O)c(O)c1
solubility (mole fraction)
Details | 293.15 K | 298.15 K | 303.15 K | 308.15 K | 313.15 K | 318.15 K
in acetonitrile | 0.0274 | 0.0341 | 0.0355 | 0.0378 | 0.0391 | 0.0405
in isopropanol | 0.028 | 0.0348 | 0.0362 | 0.0386 | 0.04 | 0.0409
in n-propanol | 0.0332 | 0.0413 | 0.0429 | 0.0458 | 0.0474 | 0.0486
in water | 0.00127 | 0.00148 | 0.00204 | 0.00252 | 0.0032 | 0.0038
